In patent US20230219969A1 (priority 2020, published 2023):
pEC50, pIC50: −log10 of the molar value. Like-named read-outs stand apart in the source and are kept apart here.

Key:
5HT2A [1] = assay type: cell-based; settings: result in words
5HT2A [2] = target: T1, 5HT2A (Homo sapiens, UniProt P28223); assay: Serotonin 5-HT2A in vitro radioligand binding competition assay ([3H]-DOI); set-up: purchased Epics Therapeutics S.A. (Belgium) FAST-0505B
Description: Serotonin 5-HT2A In Vitro Radioligand Binding Competition Assay. The 5-HT2A radioligand binding competition assay was performed at Epics Therapeutics S.A. (Belgium, FAST-0505B) using conventional methods. Briefly, competition binding is performed in duplicate in the wells of a 96 well plate (Master Block, Greiner, 786201) containing binding buffer (optimized for each receptor), membrane extracts (amount of protein/well optimized for each receptor), radiotracer [^3H]-DOI (final concentration optimized for each receptor) and test compound. Nonspecific binding is determined by co-incubation with 200-fold excess of cold competitor. The samples are incubated in a final volume of 0.1 ml at a temperature and for a duration optimized for each receptor and then filtered over filter plates. Filters are washed six times with 0.5 ml of ice-cold washing buffer (optimized for each receptor) and 50 μl of Microscint 20 (Packard) are added in each well. The plates are incubated 15 min on an orbital shaker and then counted with a TopCount™ for 1 min/well.
(§1) The compounds provided herein were tested in the Serotonin 5-HT2A and 5-HT2C in vitro radioligand binding and cellular IPOne agonism assays. The binding and agonism functional potencies of several compound provided herein compounds (as indicated by their IC50s or EC50s) are shown in Table 11.

5HT2A [3] = target: T1, 5HT2A; assay: Serotonin 5-HT2A in vitro cellular IPOne agonism assay; assay type: cell-based; set-up: host or cells: CHO-K1
Description: Serotonin 5-HT2A In Vitro Cellular IPOne Agonism Assay. The 5-HT2A IPOne HTRF assay was performed at Epics Therapeutics S.A. (Belgium, FAST-0505I) using conventional methods. Briefly, CHO-K1 cells expressing human recombinant 5-HT2A receptor grown to mid-log phase in culture media without antibiotics were detached with PBS-EDTA, centrifuged, and resuspended in medium without antibiotics buffer. 20,000 cells are distributed in a 96 well plate and incubated overnight at 37° C. with 5% CO2.
For agonist testing, the medium is removed and 20 μl of assay buffer plus 20 μl of test compound or reference agonist are added in each well. The plate is incubated for 60 min. at 37° C. with 5% CO2.
After addition of the lysis buffer containing IP1-d2 and anti-IP1 cryptate detection reagents, plates are incubated 1-hour at room temperature, and fluorescence ratios are measured according to the manufacturer specification, with the HTRF kit.
as §1

Rat cortical neurons = assay: Neurite Outgrowth in Primary Neuronal Cultures Assay (Procedure B); assay type: cell-based; set-up: key: A: Statistically significant mean increase as a percent of DMSO control at 10 μM or less; B: No statistically significant mean increase as a percent of DMSO control at 10 μM or less; settings: 72 h, percent of DMSO control at 10 μM or less
Source text: Neurite Outgrowth in Primary Neuronal Cultures Assay (Procedure B). Changes in the pattern of neurite outgrowth have been implicated in psychiatric and neurodegenerative disorders as well as traumatic injuries. The discovery of new compounds that can positively affect neuritogenesis are important for developing new therapeutics for neurological diseases. Measurement of neurite outgrowth of rat cortical neurons using an automated image-based assay was used to determine the neuroplastic effects of the compounds of the present invention. The neurite outgrowth assay was performed at Neurofit SAS (France) as described below.
Pregnant Wistar rats (Janvier; France) were used for the study. They were delivered 6 days before their use. Upon arrival at Neurofit animal facility, they were housed one per cage and maintained in a room with controlled temperature (21-22° C.) and a reversed light-dark cycle (12 h/12 h; lights on: 17:30-05:30; lights off: 05:30-17:30) with food and water available ad libitum.
Female Wistar rats of 17 days gestation were killed by cervical dislocation and the fetuses were removed from the uterus. Their brains were placed in ice-cold medium of Leibovitz (L15, Gibco, Fisher bioblock, France). Cortices were dissected and meninges were carefully removed. The cortical neurons were dissociated by trypsinization for 30 min at 37° C. (trypsin-EDTA, Gibco) in presence of 0.1 mg/ml DNAse I (Roche, France). The reaction was stopped by addition of Dulbecco's Modified Eagle Medium (DMEM; Gibco) with 10% of fetal bovine serum (FBS; Gibco). The suspension was triturated with a 10-ml pipette and using a needle syringe 21G and centrifuged at 350×g for 10 min at room temperature. The pellet of dissociated cells was resuspended in a medium consisting of Neurobasal (Gibco) supplemented with 2% B27 supplement (Gibco), 0.5 mM L-Glutamine (Gibco), an antibiotic-antimicotic mixture. Viable cells were counted in a Neubauer cytometer using the trypan blue exclusion test (Sigma). Cells were seeded at a density of 10000 cells per well in 96-well plate (Costar) precoated with poly-L-lysine. Test compound at different concentrations were added to the cultures. Donepezil (positive control) was tested at 250 nM.
After 72 h (3 days) of plating, cultures were fixed with paraformaldehyde in PBS (4%, Sigma) for 30 min at 4° C. Then, cells were successively permeabilized with 0.1% Triton X100 for 30 min, saturated with PBS containing 3% of BSA and were incubated 1 h with anti-beta III tubulin antibody (Sigma) at 1/10 000 in PBS containing 0.5% of BSA. Cells were washed three times with PBS containing 0.5% of BSA, and they were incubated 1 h with goat anti-mouse antibody coupled with AF488 (Invitrogen A11001) diluted at 1/1000 in PBS containing 0.5% of BSA. Finally, nuclei were staining with DAPI 1 mg/ml at 1/1000 in PBS containing 0.5% of BSA. After rinsing with PBS, the plate was filmed and neurite networks were examined and analyzed using High-Content Screening (CellInsight, Thermo Scientific). The average number of neurites per neuron and the average total length of neurites per neuron were the main parameters analyzed. Analysis of data was performed using analysis of variance (ANOVA). The Fisher's Protected Least Significant Difference test was used for multiple comparisons. A p value<0.05 was considered significant. The software used is StatView 5.0 from SAS Institut.
In some embodiments, a compound of the present invention increases the pattern of neurite outgrowth. In some embodiments, a compound of the present invention increases neurite average length compared to a control. In some embodiments, a compound of the present invention increases neurite branch points compared to a control.

[4] = [3H]-DOI competition, membrane extracts, read-out: 5-HT2A Radioligand Binding Activity
[5] = CHO-K1 cells, IPOne HTRF, read-out: 5-HT2A IPOne Agonism Activity

T1 sequence (P28223 whole entry): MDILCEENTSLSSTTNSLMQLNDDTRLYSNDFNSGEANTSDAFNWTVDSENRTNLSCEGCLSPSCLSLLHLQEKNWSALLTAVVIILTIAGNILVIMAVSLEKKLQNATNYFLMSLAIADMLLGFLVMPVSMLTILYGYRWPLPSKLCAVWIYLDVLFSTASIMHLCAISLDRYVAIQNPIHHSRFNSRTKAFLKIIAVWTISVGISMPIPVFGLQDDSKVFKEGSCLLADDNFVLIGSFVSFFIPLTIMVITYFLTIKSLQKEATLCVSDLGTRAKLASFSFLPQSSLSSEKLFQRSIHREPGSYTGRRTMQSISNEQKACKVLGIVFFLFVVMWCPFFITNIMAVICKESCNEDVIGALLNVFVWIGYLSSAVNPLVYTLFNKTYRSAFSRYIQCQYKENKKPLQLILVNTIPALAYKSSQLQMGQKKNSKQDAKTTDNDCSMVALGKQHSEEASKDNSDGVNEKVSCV

Structure (SMILES) | activation of 5HT2A sensor assay in agonist mode (5HT2A [1]) | pIC50 (5HT2A [2]; [4]) | pEC50 (5HT2A [3]; [5]) | Increase in Neurite Length (Rat cortical neurons) | Increase in Neurite Number (Rat cortical neurons) | pIC50 (5HT2A [2]) | pEC50 (5HT2A [3])
CCN(CC)C(=O)[C@@H]1C=C2c3cccc4[nH]c(Br)c(c34)C[C@H]2N(C)C1 [BOL148] | do not activate the 5HT2A sensor assay in agonist mode |  |  |  |  |  | 
CN(C)CCc1c[nH]c2ccccc12 [DMT, N,N-dimethyltryptamine] | activate the 5HT2A sensor assay in agonist mode |  |  |  |  |  | 
COc1cc(CC(C)N)c(OC)cc1I (stereo not drawn) [DOI] | activate the 5HT2A sensor assay in agonist mode |  |  |  |  |  | 
COc1ccc2c(ccn2CC(C)(C)N(C)C)c1 [Example 1, 1-(5-methoxy-1H-indol-1-yl)-N,N,2-trimethylpropan-2-amine] |  | < 5.00 | < 5.00 | A | A |  | 
COc1ccc2c(ccn2CC2(N(C)C)CC2)c1 [Example 2, 1-((5-methoxy-1H-indol-1-yl)methyl)-N,N-dimethylcyclopropan-1-amine] |  | < 5.00 | < 5.00 | B | B |  | 
CCN(CC)CCc1c[nH]c2cc(F)ccc12 [Example 6-F-DET] | do not activate the 5HT2A sensor assay in agonist mode |  |  |  |  |  | 
COc1ccc2c(c1)CCCN2CCN(C)C [Example 9, 2-(6-methoxy-3,4-dihydroquinolin-1(2H)-yl)-N,N-dimethylethan-1-amine] |  | 6.00 to 7.00 | < 5.00 | B | B |  | 
COc1ccc2c(ccn2[C@H]2C[C@@H](N(C)C)C2)c1 [Example 24, (1s,3s)-3-(5-methoxy-1H-indol-1-yl)-N,N-dimethylcyclobutan-1-amine] |  | < 5.00 | < 5.00 | A | B |  | 
COc1ccc2c(ccn2[C@H]2C[C@H](N(C)C)C2)c1 [Example 25, (1r,3r)-3-(5-methoxy-1H-indol-1-yl)-N,N-dimethylcyclobutan-1-amine] |  | < 5.00 | < 5.00 | A | B |  | 
C[C@H](Cn1ccc2cncnc21)N(C)C [Example 27, (R)—N,N-dimethyl-1-(7H-pyrrolo[2,3-d]pyrimidin-7-yl)propan-2-amine] |  | < 5.00 | < 5.00 | A | B |  | 
COc1ccc2c(ccn2C[C@@H](C)N)n1 [Example 28, (R)-1-(5-methoxy-1H-pyrrolo[3,2-b]pyridin-1-yl)propan-2-amine] |  | < 5.00 | < 5.00 | A | B |  | 
CN[C@H](C)Cn1ccc2nc(OC)ccc21 [Example 29, (R)-1-(5-methoxy-1H-pyrrolo[3,2-b]pyridin-1-yl)-N-methylpropan-2-amine] |  | < 5.00 | < 5.00 | A | B |  | 
COc1ccc2c(ccn2C[C@@H](C)N(C)C)n1 [Example 30, (R)-1-(5-methoxy-1H-pyrrolo[3,2-b]pyridin-1-yl)-N,N-dimethylpropan-2-amine] |  | < 5.00 | < 5.00 | A | A |  | 
COc1cc2ccn(C[C@@H](C)N)c2cn1 [Example 31, (R)-1-(5-methoxy-1H-pyrrolo[2,3-c]pyridin-1-yl)propan-2-amine] |  | 5.00 to 6.00 | 5.00 to 6.00 | B | B |  | 
CN[C@H](C)Cn1ccc2cc(OC)ncc21 [Example 32, (R)-1-(5-methoxy-1H-pyrrolo[2,3-c]pyridin-1-yl)-N-methylpropan-2-amine] |  | < 5.00 | < 5.00 | B | B |  | 
COc1cc2ccn(C[C@@H](C)N(C)C)c2cn1 [Example 33, (R)-1-(5-methoxy-1H-pyrrolo[2,3-c]pyridin-1-yl)-N,N-dimethylpropan-2-amine] |  | < 5.00 | < 5.00 | A | B |  | 
COc1cnc2c(ccn2C[C@@H](C)N(C)C)c1 [Example 36, (R)-1-(5-methoxy-1H-pyrrolo[2,3-b]pyridin-1-yl)-N,N-dimethylpropan-2-amine] |  | < 5.00 | < 5.00 | B | B |  | 
C[C@H](Cn1ccc2cnccc21)N(C)C [Example 39, (R)—N,N-dimethyl-1-(1H-pyrrolo[3,2-c]pyridin-1-yl)propan-2-amine] |  | < 5.00 | < 5.00 | B | B |  | 
COc1ccc2c(ccn2C(=O)CN(C)C)c1 [Example 45, 2-(dimethylamino)-1-(5-methoxy-1H-indol-1-yl)ethan-1-one] |  | < 5.00 | < 5.00 | B | B |  | 
COc1ccc2c(ccn2C(=O)[C@@H](C)N(C)C)c1 [Example 47, (R)-2-(dimethylamino)-1-(5-methoxy-1H-indol-1-yl)propan-1-one] |  |  |  | B | B | < 5.00 | < 5.00
O=C(c1ccc(F)cc1)C1CCN(CCn2c(=O)[nH]c3ccccc3c2=O)CC1 [Ketanserin] | do not activate the 5HT2A sensor assay in agonist mode |  |  |  |  |  | 
CNC(C)Cc1ccc2c(c1)OCO2 [L-MDMA] | do not activate the 5HT2A sensor assay in agonist mode |  |  |  |  |  | 
CCN(CC)C(=O)[C@@H]1C=C2c3cccc4[nH]cc(c34)C[C@H]2N(C)C1 [LSD] | activate the 5HT2A sensor assay in agonist mode |  |  |  |  |  | 
CN[C@H](C)Cc1ccc2c(c1)OCO2 [R-MDMA] | do not activate the 5HT2A sensor assay in agonist mode |  |  |  |  |  | 
